This note sets out measurements from PubChem BioAssay (NCI).

Structures are written as SMILES.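 Five compound concentrations were applied to cells in 96-well plates for 48 hours; endpoints were derived by simple linear interpolation of the resulting dose-response curve. GI50 marks 50% less growth. The concentration for full growth arrest is given as TGI.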 Some results are limits rather than exact numbers.

Test systems include HOP-92 NSCLC; IGROV1 ovarian; NCI-H226 lung; SF-295 CNS; SK-OV-3 ovarian; SNB-19 CNS; UO-31 renal; HS 578T breast; MCF7 breast; T-47D breast.
Common to all, as to assay: inhibition of tumour cell growth, NCI panel, 48 h

Turning to `c1ccc(COc2cccc3ccc[n+](Cc4ccccc4)c23)cc1`, the TGI in the test on HOP-92 NSCLC is 34.2 µM; in the test with IGROV1 ovarian it was 25.7 µM; in the test with NCI-H226 lung it was 25.5 µM; with SF-295 CNS, 37.9 µM; in the test with SK-OV-3 ovarian it was 73.7 µM; in the test on SNB-19 CNS, more than 100 µM. In the test on UO-31 renal, the TGI amounted to 75.2 µM.

As to `[Cl-].[La+3].[O-]/N=C(\c1ccccc1)c1ccccn1.[O-]/N=C(\c1ccccc1)c1ccccn1.[O-]/N=C(\c1ccccc1)c1ccccn1`, the GI50 is 51.5 µM in the test on IGROV1 ovarian; 21.6 µM with NCI-H226 lung; 27.7 µM in the test with SF-295 CNS; 50.8 µM in the test with SK-OV-3 ovarian; 50.5 µM with SNB-19 CNS; 30.2 µM in the test with UO-31 renal. Also, the TGI with IGROV1 ovarian is more than 100 µM; with NCI-H226 lung, 51.2 µM; with SF-295 CNS, more than 100 µM; with SK-OV-3 ovarian, more than 100 µM; in the test with SNB-19 CNS, more than 100 µM; in the test with UO-31 renal it was more than 80.8 µM.

In the case of `Cn1c2ccccc2c2cc(-c3ccccc3)c3c(c21)C(=O)c1ccccc1C3=O`, the TGI in the test on HOP-92 NSCLC is 26.3 µM; in the test with IGROV1 ovarian it was 58.5 µM; with NCI-H226 lung it was 84 µM; in the test with SF-295 CNS, 74.4 µM; in the test on SK-OV-3 ovarian, more than 100 µM; with SNB-19 CNS, more than 100 µM. The TGI with UO-31 renal is 35.4 µM.

As to `COc1ncnc(NS(=O)(=O)c2ccc(N=C3C(=O)N(CN4CCN(c5c(F)cc6c(=O)c(C(=O)O)cn(C7CC7)c6c5OC)CC4C)c4ccc(Cl)cc43)cc2)c1OC` (centres undefined), the GI50 with HOP-92 NSCLC was 10.6 µM; in the test with HS 578T breast it was 23.1 µM; in the test with IGROV1 ovarian, 20 µM; in the test with MCF7 breast it was 12 µM; in the test with NCI-H226 lung, 27.1 µM; with SF-295 CNS, 10.7 µM. In addition, the GI50 with SK-OV-3 ovarian is 37.7 µM; in the test with SNB-19 CNS, more than 50 µM; with UO-31 renal it was 32.7 µM. Moreover, the TGI with HOP-92 NSCLC, in the test with HS 578T breast, in the test on IGROV1 ovarian, with MCF7 breast, in the test with NCI-H226 lung and in the test with SF-295 CNS was more than 50 µM in each case. For the same molecule, the TGI in the test on SK-OV-3 ovarian, with SNB-19 CNS and in the test with UO-31 renal was more than 50 µM in each case.

As to `CC(C)OP(=O)(OC(C)C)C(=NCCN=C(NNc1ccc([N+](=O)[O-])cc1)P(=O)(OC(C)C)OC(C)C)NNc1ccc([N+](=O)[O-])cc1`, the TGI in the test with HOP-92 NSCLC was 8.82 µM; with IGROV1 ovarian it was 16.7 µM; in the test with NCI-H226 lung, 93.3 µM; with SNB-19 CNS it was more than 100 µM; in the test with UO-31 renal it was more than 100 µM.

Regarding `Cc1ccc(NC(=O)c2cc3cc(N=Nc4ccccc4C(=O)O)ccc3oc2=O)cc1`, the TGI in the test with IGROV1 ovarian, in the test on NCI-H226 lung, in the test on SF-295 CNS, in the test on SK-OV-3 ovarian, with SNB-19 CNS and with UO-31 renal was more than 100 µM each time.

Regarding `O=S1(=O)OCCOS(=O)(=O)C1Br`, the TGI in the test on HOP-92 NSCLC, with IGROV1 ovarian, in the test with NCI-H226 lung, in the test with SF-295 CNS, in the test with SK-OV-3 ovarian and in the test on SNB-19 CNS was more than 100 µM in each case. Also, the TGI with UO-31 renal was more than 100 µM.

Regarding `CC(=O)OC1COC(n2ccc3cc(Br)c([N+](=O)[O-])cc32)C(OC(C)=O)C1OC(C)=O` (centres undefined), the TGI in the test on HOP-92 NSCLC was 42 µM; in the test on IGROV1 ovarian it was more than 100 µM; in the test on NCI-H226 lung, 43.9 µM; in the test on SF-295 CNS, 66.7 µM; with SK-OV-3 ovarian, more than 100 µM; with SNB-19 CNS it was more than 100 µM. For the same molecule, the TGI in the test on UO-31 renal amounted to 42.8 µM.

As to `CN(C)c1ccc(/C=C(\NC(=O)c2ccccc2)c2nc3ncncc3[nH]2)cc1`, the TGI in the test on HOP-92 NSCLC, in the test on IGROV1 ovarian, with SF-295 CNS, in the test with SK-OV-3 ovarian, in the test with SNB-19 CNS and in the test with UO-31 renal was more than 100 µM in each case.

Regarding `ClCc1cccc(Cn2cnc3ncnc(Cl)c32)c1`, the GI50 was 18.2 µM with HS 578T breast; 3.38 µM in the test on IGROV1 ovarian; 3.19 µM in the test with NCI-H226 lung; 6.35 µM with SF-295 CNS; 10.8 µM in the test on SK-OV-3 ovarian; 212 nM in the test on T-47D breast. Further, the GI50 with UO-31 renal was 1.54 µM. Further, the TGI stood at 42.3 µM in the test on HS 578T breast; 13.8 µM in the test on IGROV1 ovarian; 8.67 µM in the test with NCI-H226 lung; 19 µM in the test on SF-295 CNS; 25.5 µM in the test with SK-OV-3 ovarian; 497 nM in the test with T-47D breast. The molecule further registered a TGI with UO-31 renal of 3.11 µM.

For `COc1cc(C2c3cc4c(cc3OC(C)(O)C2C)OCO4)cc(OC)c1OC` (centres undefined), the TGI with HS 578T breast is more than 100 µM; in the test on IGROV1 ovarian, 76.2 µM; in the test on MCF7 breast it was more than 100 µM; in the test with NCI-H226 lung it was 13.5 µM; in the test on SNB-19 CNS, more than 100 µM; in the test on UO-31 renal, 81.5 µM.

For the molecule `CCCCCCN(CCCCCC)C(=O)Cc1c2n(c3ccccc13)Cc1ccccc1-2`, the TGI with HOP-92 NSCLC is 79.7 µM; in the test on NCI-H226 lung, more than 100 µM; in the test on SF-295 CNS, more than 100 µM; with SK-OV-3 ovarian, more than 100 µM; in the test with SNB-19 CNS, more than 100 µM; in the test with UO-31 renal it was more than 100 µM.

For `C=C1C(=O)O[C@H]2[C@H]1CC/C(COC(=O)c1c[nH]c3ccccc13)=C\CC[C@@]1(C)O[C@@H]21`, the GI50 was 0.169 µM in the test with HOP-92 NSCLC; 0.613 µM in the test on HS 578T breast; 0.445 µM in the test with NCI-H226 lung; 1.94 µM with SF-295 CNS; 2.24 µM with SK-OV-3 ovarian; 1.3 µM in the test on SNB-19 CNS. Further, the GI50 in the test with T-47D breast is 401 nM; in the test with UO-31 renal, 0.165 µM. In addition, the TGI with HOP-92 NSCLC turned out to be 0.45 µM; with HS 578T breast it was 6.83 µM; in the test on NCI-H226 lung it was 1.96 µM; in the test on SF-295 CNS, 4.47 µM; in the test with SK-OV-3 ovarian it was 5.59 µM; with SNB-19 CNS, 2.91 µM. In addition, the figures for the TGI in the test with T-47D breast and in the test on UO-31 renal were 2260 nM and 0.313 µM, respectively.

Turning to `CC(=O)/C(=C\c1cccc([N+](=O)[O-])c1)C(=O)Nc1ccccc1C`, the TGI in the test with HOP-92 NSCLC, in the test on IGROV1 ovarian, in the test with NCI-H226 lung, in the test on SF-295 CNS, in the test on SK-OV-3 ovarian and in the test on SNB-19 CNS was more than 100 µM each time. This molecule returned a TGI in the test on UO-31 renal of more than 100 µM.
